Assay results reported in patent US6846664B2, “Process for the preparation of protease inhibitor using novel alkalothermophilic bacillus sp” (priority 2000, dated 2005).
Ends that are not written are not given here.

Experiments:
pepsin = pepsin (Homo sapiens, UniProt P0DJD8); assay: Assay of pepsin inhibition (casein substrate, pH 2.0, OD 280 nm); type: biochemical; settings: purified RP-HPLC compound
Description: In a feature of the invention, the pepsin inhibitor was selectively purified by removing the high molecular weight compounds from the culture broth by treating it with activated charcoal. The charcoal treated broth was filtered through ultrafiltration membrane and concentrated by lyophilization. The concentrated inhibitor sample was loaded onto a reverse phase-high performance liquid chromatography column using a linear gradient of acetonitrile and triflouroacetate, and the peaks were checked for the inhibitor activity. […] This compound absorbs strongly at 210 nm. The compound was collected and checked as a single purified peptide after loading onto the HPLC column. One unit of inhibitor is defined as the amount of inhibitor which inhibits the protease activity expressed in terms of decrease in optical density of 0.001 per minute.
The protease pepsin was incubated in KC1-HC1 buffer, 0.02 M, pH-2.0, containing the inhibitor in various molar ratios at 37° C. for 30 min. After incubation the residual activity was determined and compared with the controls incubated without the inhibitor.
For example—To 0.05 ml of 100 mg/ml of aqueous solution of pepsin, 0.1 ml of the inhibitor solution was added. […] Precipitated excess casein was removed by filtration after incubation for one hour and the optical density was measured at 280 nm. […]

Trichoderma reesei = assay: Antifungal activity assay (mycelial growth / spore germination); type: cell-based
Description: (§1) The fungal strains Trichoderma reesei (deposited at The National Collection for Industrial Micro-organisms, Pune India and bearing accession numbers NCIM 992, NCIM 1052- and NCIM 1186), Fusarium oxysporum (bearing accession numbers NCIM 1008, 1043, 1072), Aspergillus flavus (bearing accession numbers NCIM 535, 536, 538, 542), Aspergillus oryzae (bearing accession numbers NCIM 637, 643, 649, 1032), Fusarium moniliforme (bearing accession numbers NCIM 1099, 1100), Alternaria alternata (bearing accession numbers NCIM 887), Claviceps purpurea (bearing accession numbers NCIM 1046), Curvularia fallax (bearing accession numbers NCIM 714), Curvularia lunata (NCIM 716), Curvularia cymbopogonis (bearing accession numbers NCIM 695) and Penicillium fellatanum (bearing accession numbers NCIM 1227) were grown on potato dextrose agar slants for 7-8 days. The said fungal strains have characteristics similar to the strains deposited at American Type Culture Collection, USA and bearing accession number as under: • Trichoderma reesei NCIM 992-ATCC No.13631 • Trichoderma reesei NCIM 1052-ATCC No.24449 • Trichoderma reesei NCIM 1186-ATCC No.26921 Fungal mycelium from the freshly grown culture was inoculated at the centre of petri plates containing potato dextrose agar medium and incubated till they form small circular growth. The time period for the vegetative growth of different fungus is different. On the periphery of the advancing fungal mycelia, four filter paper discs were impregnated at equal distances, with four different concentrations of the inhibitor sample. The plates were incubated at room temperature for 24-48 h to check the crescent zone of the retarded mycelial growth. For sporulating fungus the applicants also had checked the inhibition by spore suspension method. In this method the agar slants were incubated at room temperature till they sporulate. 4 ml of sterile distilled water was added aseptically to the agar slant and the spores were scrapped by using an inoculation loop. 1 ml of this suspension was mixed with 4 ml of malt extract, glucose, yeast extract, peptone media containing 0.4% agarose and poured onto the potato dextrose agar plate. This plate was incubated at room temperature for 4-10 h. Filter paper discs were impregnated and different concentrations of the inhibitor was added onto it. The plates were further incubated at room temperature for 24-48 h and the inhibition zone against the growth was checked. […] The advantages of the Invention are
(§2) Inhibition of growth of fungi by the inhibitor was studied using inhibition assays against mycelial growth and spore germination.
(§3) For example-In case of mycelial growth inhibition assay, fungal mycelium from freshly grown culture was inoculated at the center of potato dextrose agar plate and incubated at 28° C. for 48-72 hours. Sterile filter paper discs impregnated with different concentrations of the inhibitor were placed on the periphery of the growing fungal mycelium. The plates were incubated at 28° C. and the crescent zones of the retarded mycelial growth were observed. In case of inhibition assay against spore-germination, fungal spore suspension was made in malt extract, glucose, yeast extract and peptone (MGYP) liquid medium. To the spore suspension, various concentration of the inhibitor was added. The resulting suspension was incubated at 28° C. for 24 hours. The germination of the spores in presence and absence of the inhibitor were checked under inverted microscope. The minimum inhibitory does MID of several fungal strains are given below in the Table 2.

Alternaria alternata = assay: as above; type: cell-based
Description: as §1, §2, §3

Fusarium moniliforme = assay: as above; type: cell-based; settings: 28° C.
Description: as §1, §2, §3

Fusarium oxysporum = assay: as above; type: cell-based
Description: as §1, §2, §3

Aspergillus flavus = assay: as above; type: cell-based
Description: as §1, §2, §3

Aspergillus oryzae = assay: as above; type: cell-based
Description: as §1, §2, §3

Curvularia lunata = assay: Mycelial growth inhibition, filter paper disc on potato dextrose agar; type: cell-based; settings: Curvularia lunata NCIM 716; room temperature 24-48 h
Description: as §1, with “are […]” for “are”

Claviceps purpurea = assay: as above; type: cell-based; settings: Claviceps purpurea NCIM 1046; room temperature 24-48 h
Description: as §1, with “are […]” for “are”

Curvularia cymbopogonis = assay: as above; type: cell-based; settings: Curvularia cymbopogonis NCIM 695; room temperature 24-48 h
Description: as §1, with “are […]” for “are”

Curvularia fallax = assay: as above; type: cell-based; settings: Curvularia fallax NCIM 714; room temperature 24-48 h
Description: as §1, with “are […]” for “are”

Sequence of pepsin (P0DJD8 63-388): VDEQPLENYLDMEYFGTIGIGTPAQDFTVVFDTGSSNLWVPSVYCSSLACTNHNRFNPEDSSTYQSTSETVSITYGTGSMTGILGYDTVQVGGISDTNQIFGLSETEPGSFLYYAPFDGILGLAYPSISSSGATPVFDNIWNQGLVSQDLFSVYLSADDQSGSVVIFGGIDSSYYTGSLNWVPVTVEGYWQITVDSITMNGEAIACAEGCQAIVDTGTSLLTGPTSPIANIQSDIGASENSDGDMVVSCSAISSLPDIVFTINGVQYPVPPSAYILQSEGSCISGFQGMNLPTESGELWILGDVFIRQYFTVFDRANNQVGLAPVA

AGKKDDDDPPE [inhibitor]
inhibition against pepsin (RP-HPLC peak) (pepsin): showed the inhibition | inhibition of mycelial growth (Trichoderma reesei; Trichoderma reesei NCIM 992, 1052, 1186, room temperature 24-48 h): strongly inhibit | MID (minimum inhibitory dose) (Trichoderma reesei; Trichoderma reesei, 28° C.): 0.292 mg | inhibition of mycelial growth (Alternaria alternata; Altemaria alternata NCIM 887, room temperature 24-48 h): strongly inhibit | MID (minimum inhibitory dose) (Alternaria alternata; Alternaria alternata, 28° C.): 0.582 mg | MID (minimum inhibitory dose) (Fusarium moniliforme): 1.840 mg | inhibition of mycelial growth (Fusarium oxysporum; Fusarium oxysporum NCIM 1008, 1072, room temperature 24-48 h): strongly inhibit | MID (minimum inhibitory dose) (Fusarium oxysporum; Fusarium oxysporum, 28° C.): 2.300 mg | inhibition of mycelial growth (Aspergillus flavus; Aspergillus flavus NCIM 535, 542, room temperature 24-48 h): strongly inhibit | MID (minimum inhibitory dose) (Aspergillus flavus; Aspergillus flavus, 28° C.): 0.817 mg | inhibition of mycelial growth (Aspergillus oryzae; Aspergillus oryzae NCIM 637, 643, room temperature 24-48 h): strongly inhibit | MID (minimum inhibitory dose) (Aspergillus oryzae; Aspergillus oryzae, 28° C.): 1.147 mg | inhibition of mycelial growth (Curvularia lunata): strongly inhibit | inhibition of mycelial growth (Claviceps purpurea): strongly inhibit | inhibition of mycelial growth (Curvularia cymbopogonis): strongly inhibit | inhibition of mycelial growth (Curvularia fallax): strongly inhibit
